For experiment [1], the system named is experimental model of RPGN. Briefly: anti-GBM RPGN model, continuous infusion of selective ETA or ETB antagonist by subcutaneous osmotic minipumps. The experiment is classed as in vivo, C57B1/6J mice. As to conditions: 100 nmol·kg−1·day−1 by minipump; for plasma urea concentration (index of renal failure): vehicle 34.3±6.1 mmol/L.
The subject of experiment [2] is murine podocyte cell line. In words: migration assay in cultured podocytes (Ibidi Culture-Insert, gap coverage). The experiment is classed as cell-based, mouse. The settings on record: coverage of 500 μm gap after 20 hours of culture; vs vehicle (RPMI with DMSO). On the procedure:
Selected experiments (migration studies) were performed in a murine podocyte cell line (Schiwek D et al, 2004) derived from isolated from kidneys of Immorto-Mouse® mice (Charles River, St. Louis, Mo., USA), carrying a temperature-sensitive mutant of the immortalizing SV40 large T antigen under control of the interferon-gamma (INF-γ)-inducible H-2 Kb promoter. Migration assays were performed in μ-Dish 35 mm high with Culture-Insert (Ibidi). Ibidi's wounding inserts were used for cell migration or cell invasion studies. […] The inserts can be inserted into any bio-compatible surface and used to culture one or multiple cell lines. These inserts have two wells that create 2 distinct cell patches with a defined gap of 500 μm. The coverage of this gap after 20 hours of culture was assessed in the presence of the selective ETA antagonist BQ123 or the ETB antagonist BQ 788 (Calbiochem) or vehicle (RPMI with DMSO).

For experiment [3], the system named is accelerated anti-GBM RPGN model. Briefly: accelerated anti-GBM RPGN model, bosentan mixed with food. The settings on record: bosentan 50 mg/kg/d oral in food. The experiment is classed as in vivo, C57B1/6J mice.
Description: Male and female C57B1/6 mice weighing 20-25 g, 10 weeks old, purchased from Charles River France, were housed in a room with a 12 h light-dark cycle with water and food ad libido. […] The animals were sacrificed by injection of pentobarbital (100 mg/kg i.p.)
The accelerated anti-GBM RPGN model was used, as previously described in Topham P S et al, 1999 and Lloyd C M et al, 1997. Briefly, C57B1/6J male mice were given subcutaneous injections of 200 μg normal sheep IgG (100 μl into each flank of normal sheep IgG (Sigma) diluted to 1 mg/ml in a solution of 50% Freund's complete adjuvent and 50% saline). Six days later (day 1), GN was induced by intravenous injection of 50 μL sheep anti-glomerular basement membrane (GBM) serum diluted to 70 mg/ml in saline. Serum injections were repeated twice (on days 2 and 3), with the serum volume increased to 250 μL. From days 0 to 14, mice were given bosentan, an orally active endothelin antagonist (designated chemically as 4-tert-butyl-N-[6-(2-hydroxy-ethoxy)-5-(2-methoxy-phenoxy)-[2,2′]-bipyrimidin-4-yl]-benzenesulfonamide monohydrate). We manually grinded 62.5 mg film-coated tablets of […] ® (bosentan) for oral administration and mixed them with powdered food supplied to the animals at an active dose of 50 mg/kg/d for 14 days as previously described^3. […] The treated group (n=7) was compared to vehicle-treated animals (n=6). […]
Normalized albumin urinary excretion was evaluated from urine samples collected for 18 h in metabolic cages (Techniplast). Urinary creatinine and albumin were quantified spectrophotometrically using colorimetric methods (Olympus).
For light microscopy, half mouse kidneys were fixed and embedded in paraffin, and 3 μm-thick sections were cut. Histopathological changes were evaluated using Masson's trichrome coloration by an examiner who was blind to the experimental conditions. The proportion of crescentic glomeruli was determined by examination of at least 50 glomeruli per section.

Where a SMILES comes first, the peptide text is derived from it. [ ]: non-standard residue; d: D form.

The source of these data is patent publication US20120283190A1, “ENDOTHELIN INHIBITORS FOR THE TREATMENT OF RAPIDLY PROGRESSIVE GLOMERULONEPHRITIS” (Institut National De La Santé Et De La Recherche Medicale …, priority 2009, published 2012).

On to `CC(C)C[C@@H]1NC(=O)[C@@H](C(C)C)NC(=O)[C@@H]2CCCN2C(=O)[C@@H](CC(=O)O)NC(=O)[C@@H](Cc2c[nH]c3ccccc23)NC1=O` [BQ123] (cyclo(L[dW][dD]P[dV])), for which the “plasma urea concentration (index of renal failure)” value in experiment [1] is 17.5 ± 2.5 mmol/L.
In the case of `CCCC[C@@H](NC(=O)[C@@H](Cc1cn(C(=O)OC)c2ccccc12)NC(=O)[C@H](CC(C)(C)C)NC(=O)N1[C@H](C)CCC[C@@H]1C)C(=O)O` [BQ788], the “migration of cultured podocytes” value in experiment [2] is “prominent action”. Moreover, the “Albuminuria normalized to creatininuria” value in experiment [1] (day 7 after infusion of the anti-GBM serum, versus PBS-treated animals) is listed as “prominent action”. The “plasma urea concentration (index of renal failure)” value in experiment [1] was determined as 12.3 ± 2.1 mmol/L.
Turning to `COc1ccccc1Oc1c(NS(=O)(=O)c2ccc(C(C)(C)C)cc2)nc(-c2ncccn2)nc1OCCO` [bosentan, 4-tert-butyl-N-[6-(2-hydroxy-ethoxy)-5-(2-methoxy-phenoxy)-[2,2′]-bipyrimidin-4-yl]-benzenesulfonamide monohydrate], in experiment [3] (day 5 after infusion of the anti-GBM serum, p=0.0053), the “Albuminuria normalized to creatininuria, fold lower than in vehicle-treated counterparts” value came to 5.8 fold. In experiment [3] (day 14 after infusion of the anti-GBM serum, p=0.0057), the “crescentic glomeruli, fold less than in vehicle-treated counterparts” value is reported as 14 fold. Moreover, in experiment [3] (mice with anti-GBM serum-induced RPGN), the “fibrinogen deposition in glomeruli with disappearance of podocin positive podocytes” value was “blunted”.
